Here are results for 11 molecules from US12583859B2, “PRMT5 inhibitors and uses thereof” (California Institute of Technology, priority 2019, dated 2026).

SMILES strings stand for the structures.

For experiment [1], the target named is T1, PRMT5 (Homo sapiens, UniProt O14744).
T1 construct: purchased BPS Biosciences 52002L
Briefly: PRMT5 Enzymatic Inhibition Assay (chemiluminescence immunoassay of histone H4 methylation). The conditions noted are these: 1 hour at room temperature; 10 μM to 1 nM. The class given is biochemical. How it is done:
A chemiluminescence immunoassay (CLIA) measuring the amount of PRMT5-mediated histone methylation was performed in a 96-well plate format according to the manufacturer's protocol (BPS Biosciences, Cat #52002L). A 96-well plate precoated with histone H4 peptide was rehydrated prior to use. A master mix containing PRMT5 substrate S-adenosylmethionine, reaction buffer, and purified PRMT5 enzyme was added to create reaction-competent wells. Wells lacking either S-adenosylmethionine substrate or PRMT5 enzyme were created as negative controls. 10 test concentrations, ranging from 100 μM to 10 nM, of the test compound were prepared using a 1:3 serial dilution in dH2O. 5 μL of each test concentration was added into a reaction-competent well. 5 μL of a 1% DMSO aqueous solution lacking inhibitor was added into negative control wells and into a reaction-competent well, creating a positive control well. The final reaction volume in each well was 50 μL, and the final concentration of the test compound in each well ranged from 10 μM to 1 nM. A known inhibitor of PRMT5, EPZ015666, was tested in parallel reaction wells as an assay validation control. The 96-well plate was incubated for 1 hour at room temperature.
Upon completion of the incubation, the reaction supernatant in each well was discarded. Wells were washed with 1×TBST and incubated in blocking buffer for 1 hour. The wells were incubated with a primary antibody recognizing methylated Arg3 residues on Histone H4 for 1 hour. The wells were washed with 1×TBST again and subsequently incubated with an HRP-conjugated secondary antibody for 30 minutes. The wells were washed again with 1×TBST, and equal parts of the chemiluminescence reagents were added into each well. Quantification of luminescence was measured in a plate reader.
Luminescence values were normalized against the positive and negative controls to convert the data into % PRMT5 activity. An inhibitor concentration-dependent curve was plotted against % PRMT5 activity and am IC50 value was determined for each compound.

Experiment [2] deals with drug-sensitive cell lines of Table 4. Briefly: Cell Line Growth Retardation Assay, average maximum effect in sensitive cohort. The class given is cell-based, Human. Particulars: average maximum growth inhibition over sensitive cohort of Table 4; 6 days; up to 1 μM. How it is done:
(§1) Cells were seeded at densities of 1,000-5,000 cells per well in 48-well tissue culture plates. After a 24 h rest period, cells were treated with compound at 1 μM, 0.2 μM, 0.04 μM, 0.008 μM, 0.0016 μM, and 0.00032 μM. A group of cells were treated with the vehicle in which the compound was prepared and served as a control. Prior to treatment, cells were counted and this count was used as a baseline for the calculation of growth inhibition. The cells were grown in the presence of compounds for 6 days and were counted on day 6. All cell counting was performed using a Synentec Cellavista plate imager. Growth inhibition was calculated as a ratio of cell population doublings in the presence of compound versus the absence of compound and expressed as the maximum percentage growth inhibition achieved across the range of tested concentrations of the compound (“maximum effect” or “ME”) calculated by fitting curves to data points from each dose-response assay using the Proc NLIN function in SAS for Windows version 9.2 (SAS Institute, Inc.).
(§2) Human cancer cell lines were grouped as “sensitive” or “resistant” to PRMT5 inhibition based on whether their growth was retarded by JNJ-64619178 (i.e., (1S,2R,3R,5R)-3-(2-(2-amino-3-bromoquinolin-7-yl)ethyl)-5-(4-amino-7H-pyrrolo[2,3-d]pyrimidin-7-yl)cyclopentane-1,2-diol) (data not shown; see Table 4). These sensitive and resistant cohorts were interrogated for response to each compound, and ME was calculated for each cell line using the same technique described above. Average MEs for the sensitive and resistant cohorts were calculated as arithmetic means of the group. “A” represents a percent of maximum effect of 60% or greater, “B” represents a percent of maximum effect of 30% to 59%, and “C” represents a percent of maximum effect of 29% or lower.

Experiment [3] relates to drug-resistant cell lines of Table 4. Briefly: Cell Line Growth Retardation Assay, average maximum effect in resistant cohort. Particulars: average maximum growth inhibition over resistant cohort of Table 4; 6 days; up to 1 μM. It is filed as cell-based, Human. As to the method: as §1, §2

T1 sequence (O14744 2-637 limits assumed): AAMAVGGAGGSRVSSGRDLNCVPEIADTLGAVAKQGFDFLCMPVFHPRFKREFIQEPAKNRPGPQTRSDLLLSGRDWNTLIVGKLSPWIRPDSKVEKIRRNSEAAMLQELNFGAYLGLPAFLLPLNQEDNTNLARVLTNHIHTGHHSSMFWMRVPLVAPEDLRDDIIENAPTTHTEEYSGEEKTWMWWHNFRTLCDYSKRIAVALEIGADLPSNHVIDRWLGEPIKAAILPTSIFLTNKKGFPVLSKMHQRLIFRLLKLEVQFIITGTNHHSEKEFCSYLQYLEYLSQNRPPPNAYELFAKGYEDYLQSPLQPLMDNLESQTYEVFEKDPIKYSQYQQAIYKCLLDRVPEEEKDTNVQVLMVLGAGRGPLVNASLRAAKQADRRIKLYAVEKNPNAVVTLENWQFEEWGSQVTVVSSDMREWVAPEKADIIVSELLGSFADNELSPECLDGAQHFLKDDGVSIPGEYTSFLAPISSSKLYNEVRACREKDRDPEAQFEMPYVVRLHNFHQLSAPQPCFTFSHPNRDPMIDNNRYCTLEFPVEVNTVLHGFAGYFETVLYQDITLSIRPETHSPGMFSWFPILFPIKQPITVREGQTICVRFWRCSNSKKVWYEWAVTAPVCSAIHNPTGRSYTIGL
T1 sequence (Q9BQA1 2-342 partner limits assumed): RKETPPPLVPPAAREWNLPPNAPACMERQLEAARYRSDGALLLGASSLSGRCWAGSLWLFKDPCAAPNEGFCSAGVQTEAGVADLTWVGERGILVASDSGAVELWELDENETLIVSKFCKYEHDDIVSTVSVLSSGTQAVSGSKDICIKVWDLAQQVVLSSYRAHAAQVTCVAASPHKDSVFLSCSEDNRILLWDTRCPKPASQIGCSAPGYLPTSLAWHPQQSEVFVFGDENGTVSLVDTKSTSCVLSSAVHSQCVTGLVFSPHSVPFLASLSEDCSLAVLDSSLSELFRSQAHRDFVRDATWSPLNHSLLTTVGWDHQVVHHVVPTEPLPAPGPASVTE

In turn, `O[C@H]1[C@H](n2ccc3c(Cl)ncnc32)C[C@@]2(CNC(c3ccc4cc(Br)c(Cl)nc4c3)C2)[C@H]1O` (single isomer, unassigned) [Compound 1] yielded an IC50 in experiment [1] greater than 500 nM. Also, in experiment [2], the “AvgSens ME (%)” value is given as “C (a percent of maximum effect of 29% or lower)”. Moreover, in experiment [3], the “AvgRes ME (%)” value is recorded as “C (a percent of maximum effect of 29% or lower)”.

Consider `O[C@H]1[C@H](n2ccc3c(Cl)ncnc32)C[C@@]2(CNC(c3ccc4cc(Br)c(Cl)nc4c3)C2)[C@H]1O` (single isomer, unassigned) [Compound 2], for which the IC50 in experiment [1] is greater than 500 nM. Also, the “AvgSens ME (%)” value in experiment [2] is “C (a percent of maximum effect of 29% or lower)”. Moreover, the “AvgRes ME (%)” value in experiment [3] was “C (a percent of maximum effect of 29% or lower)”.

As to `Nc1ncnc2c1ccn2[C@@H]1C[C@@]2(CNC(c3ccc4cc(Br)c(Cl)nc4c3)C2)[C@@H](O)[C@H]1O` (single isomer, unassigned) [Compound 3], in experiment [1], the IC50 was greater than 500 nM. Moreover, the “AvgSens ME (%)” value in experiment [2] was “C (a percent of maximum effect of 29% or lower)”. For the same molecule, in experiment [3], the “AvgRes ME (%)” value was “C (a percent of maximum effect of 29% or lower)”.

In experiment [1], `Nc1ncnc2c1ccn2[C@@H]1C[C@@]2(CNC(c3ccc4cc(Br)c(Cl)nc4c3)C2)[C@@H](O)[C@H]1O` (single isomer, unassigned) [Compound 4] gave an IC50 of 101 to 500 nM. For the same molecule, the “AvgSens ME (%)” value in experiment [2] was “C (a percent of maximum effect of 29% or lower)”. Besides, the “AvgRes ME (%)” value in experiment [3] is reported as “C (a percent of maximum effect of 29% or lower)”.

On to `CN1C[C@]2(CC1c1ccc3cc(Br)c(N)nc3c1)C[C@@H](n1ccc3c(N)ncnc31)[C@H](O)[C@@H]2O` (single isomer, unassigned) [Compound 5], for which the IC50 in experiment [1] is 101 to 500 nM. The “AvgSens ME (%)” value in experiment [2] is “C (a percent of maximum effect of 29% or lower)”. Moreover, the “AvgRes ME (%)” value in experiment [3] was “C (a percent of maximum effect of 29% or lower)”.

Consider `CN1C[C@]2(CC1c1ccc3cc(Br)c(N)nc3c1)C[C@@H](n1ccc3c(N)ncnc31)[C@H](O)[C@@H]2O` (single isomer, unassigned) [Compound 6], for which the IC50 in experiment [1] was greater than 500 nM. For the same molecule, the “AvgSens ME (%)” value in experiment [2] is given as “C (a percent of maximum effect of 29% or lower)”. Besides, in experiment [3], the “AvgRes ME (%)” value is given as “C (a percent of maximum effect of 29% or lower)”.

`Nc1nc2cc(C3C[C@@]4(CN3)C[C@@H](n3ccc5c(N)ncnc53)[C@H](O)[C@@H]4O)ccc2cc1Br` (single isomer, unassigned) [Compound 7] returned an IC50 in experiment [1] of no more than 100 nM. In addition, the “AvgSens ME (%)” value in experiment [2] is “A (a percent of maximum effect of 60% or greater)”. In addition, the “AvgRes ME (%)” value in experiment [3] is recorded as “B (a percent of maximum effect of 30% to 59%)”.

The molecule `Nc1nc2cc(C3C[C@@]4(CN3)C[C@@H](n3ccc5c(Cl)ncnc53)[C@H](O)[C@@H]4O)ccc2cc1Br` (single isomer, unassigned) [Compound 10] showed an IC50 in experiment [1] of 101 to 500 nM. Moreover, the “AvgSens ME (%)” value in experiment [2] is listed as “C (a percent of maximum effect of 29% or lower)”. In experiment [3], the “AvgRes ME (%)” value is reported as “C (a percent of maximum effect of 29% or lower)”.

Molecule `Nc1nc2cc(C3C[C@@]4(CO3)C[C@@H](n3ccc5c(N)ncnc53)[C@H](O)[C@@H]4O)ccc2cc1Br` (single isomer, unassigned) [Compound 16] showed an IC50 in experiment [1] of no more than 100 nM. The “AvgSens ME (%)” value in experiment [2] is listed as “A (a percent of maximum effect of 60% or greater)”. For the same molecule, the “AvgRes ME (%)” value in experiment [3] was “B (a percent of maximum effect of 30% to 59%)”.

`Nc1nc2cc(C3C[C@@]4(CO3)C[C@@H](n3ccc5c(Cl)ncnc53)[C@H](O)[C@@H]4O)ccc2cc1Br` (stereo partly drawn) [Compound 18] displayed an IC50 in experiment [1] of no more than 100 nM. Further, the “AvgSens ME (%)” value in experiment [2] is “C (a percent of maximum effect of 29% or lower)”. Further, in experiment [3], the “AvgRes ME (%)” value is reported as “C (a percent of maximum effect of 29% or lower)”.

Turning to `CC(C)Nc1ncnc2c1ccn2[C@@H]1C[C@@]2(CO[C@@H](c3ccc4cc(Br)c(N)nc4c3)C2)[C@@H](O)[C@H]1O` [Compound 25], the IC50 in experiment [1] was no more than 100 nM. Moreover, the “AvgSens ME (%)” value in experiment [2] is “B (a percent of maximum effect of 30% to 59%)”. The “AvgRes ME (%)” value in experiment [3] is reported as “C (a percent of maximum effect of 29% or lower)”.
